Laboratory results: BindingDB's records for doi:10.1021/jm970569j (Seoul National University, 1998)

Molecular target: Platelet-activating factor receptor (Oryctolagus cuniculus)
Assay: In vitro inhibitory activity against PAF receptor using [3H]PAF as radioligand in rabbit platelets

SMILES | IC50 [µM]
C=C1CCC2[C@@](C)(CO)CCC[C@]2(C)[C@H]1CCC1=CCOC1=O (stereo partly drawn) [3-[2-((1S,5S,8aR)-5-Hydroxymethyl-5,8a-dimethyl-2-methylene-decahydro-naphthalen-1-yl)-ethyl]-5H-furan-2-one] | 30
C=C1CCC2[C@@](C)(CO)CCC[C@]2(C)[C@H]1CCC1=CC(=O)OC1 (stereo partly drawn) [4-[2-((1S,5S,8aR)-5-Hydroxymethyl-5,8a-dimethyl-2-methylene-decahydro-naphthalen-1-yl)-ethyl]-5H-furan-2-one] | 110
COC(=O)[C@@]1(C)CCC[C@@]2(C)C1CCC(C)[C@@H]2CCC1CCOC1=O (stereo partly drawn) [(1S,4aR,5S)-1,4a,6-Trimethyl-5-[2-(2-oxo-tetrahydro-furan-3-yl)-ethyl]-decahydro-naphthalene-1-carboxylic acid methyl ester] | 4.8
C=C1CCC2[C@](C)(CCC[C@]2(C)C(=O)OC)[C@H]1CCC1=CC(=O)OC1 (stereo partly drawn) [(1S,4aR,5S)-1,4a-Dimethyl-6-methylene-5-[2-(5-oxo-2,5-dihydro-furan-3-yl)-ethyl]-decahydro-naphthalene-1-carboxylic acid methyl ester] | 6
C=C1CCC2[C@](C)(CCC[C@]2(C)C(=O)OC)[C@H]1CCc1ccoc1 (stereo partly drawn) [(1S,4aR,5S)-5-(2-Furan-3-yl-ethyl)-1,4a-dimethyl-6-methylene-decahydro-naphthalene-1-carboxylic acid methyl ester] | > 1000
C=C1CCC2[C@](C)(CCC[C@]2(C)C(=O)OC)[C@H]1CC/C(=C/CO)CO (stereo partly drawn) [(1S,4aR,5S)-5-((Z)-5-Hydroxy-3-hydroxymethyl-pent-3-enyl)-1,4a-dimethyl-6-methylene-decahydro-naphthalene-1-carboxylic acid methyl ester] | 12
COC(=O)[C@@]1(C)CCC[C@@]2(C)C1CCC(=O)[C@@H]2CCC1CCOC1=O (stereo partly drawn) [(1S,4aS,5R)-1,4a-Dimethyl-6-oxo-5-[2-(2-oxo-tetrahydro-furan-3-yl)-ethyl]-decahydro-naphthalene-1-carboxylic acid methyl ester] | 2.6
COC(=O)[C@@]1(C)CCC[C@@]2(C)C1CC[C@](O)(CO)[C@@H]2CCC1=CCOC1=O (stereo partly drawn) [(1S,4aS,5R,6R)-6-Hydroxy-6-hydroxymethyl-1,4a-dimethyl-5-[2-(2-oxo-2,5-dihydro-furan-3-yl)-ethyl]-decahydro-naphthalene-1-carboxylic acid methyl ester] | > 1000
C=C1CCC2[C@@](C)(CO)CCC[C@]2(C)[C@H]1CC/C(=C/CO)CO (stereo partly drawn) [(Z)-2-[2-((1S,5S,8aR)-5-Hydroxymethyl-5,8a-dimethyl-2-methylene-decahydro-naphthalen-1-yl)-ethyl]-but-2-ene-1,4-diol] | 21

Stronger by IC50, values ahead:

IC50 [µM] | SMILES
2 | C=C1CCC2[C@](C)(CCC[C@]2(C)C(=O)OC)[C@H]1CCC1CCOC1=O (stereo partly drawn) [(1S,4aR,5S)-1,4a-Dimethyl-6-methylene-5-[2-(2-oxo-tetrahydro-furan-3-yl)-ethyl]-decahydro-naphthalene-1-carboxylic acid methyl ester]
2 | COC(=O)[C@@]1(C)CCC[C@@]2(C)C1CC[C@H](O)[C@@H]2CCC1=CCOC1=O (stereo partly drawn) [(1S,4aS,5R,6S)-6-Hydroxy-1,4a-dimethyl-5-[2-(2-oxo-2,5-dihydro-furan-3-yl)-ethyl]-decahydro-naphthalene-1-carboxylic acid methyl ester]
1.7 | C=C1CCC2[C@@](C)(COC)CCC[C@]2(C)[C@H]1CCC1=CCOC1=O (stereo partly drawn) [3-[2-((1S,5S,8aR)-5-Methoxymethyl-5,8a-dimethyl-2-methylene-decahydro-naphthalen-1-yl)-ethyl]-5H-furan-2-one]
1.6 | COC(=O)[C@@]1(C)CCC[C@@]2(C)C1CC[C@H](CO)[C@@H]2CCC1=CCOC1=O (stereo partly drawn) [(1S,4aR,5S,6S)-6-Hydroxymethyl-1,4a-dimethyl-5-[2-(2-oxo-2,5-dihydro-furan-3-yl)-ethyl]-decahydro-naphthalene-1-carboxylic acid methyl ester]
1 | COC(=O)[C@@]1(C)CCC[C@@]2(C)C1CC[C@]1(CO1)[C@@H]2CCC1=CCOC1=O (stereo partly specified) [methyl 5,8a-dimethyl-1-[2-(2-oxo-2,5-dihydro-3-furanyl)ethyl]spiro[perhydronaphthalene-2,2'-(dihydrooxirane)]-5-carboxylate]
0.26 | COC(=O)[C@@]1(C)CCC[C@@]2(C)C1CCC(=O)[C@@H]2CCC1=CCOC1=O (stereo partly drawn) [(1S,4aS,5R)-1,4a-Dimethyl-6-oxo-5-[2-(2-oxo-2,5-dihydro-furan-3-yl)-ethyl]-decahydro-naphthalene-1-carboxylic acid methyl ester]
0.25 | C=C1CCC2[C@](C)(CCC[C@]2(C)C(=O)OC)[C@H]1CCC1=CCOC1=O (stereo partly drawn) [(1S,4aR,5S)-1,4a-Dimethyl-6-methylene-5-[2-(2-oxo-2,5-dihydro-furan-3-yl)-ethyl]-decahydro-naphthalene-1-carboxylic acid methyl ester]
